Laboratory results reported in patent US9238656B2, “Imidazo[4,5-b]pyridine derivatives as ALK and JAK modulators for the treatment of proliferative disorders” (priority 2012, dated 2016).
Structures can show the parent of a compound that is named as a salt. Where two headings read alike, the source gives them in different places.

Key:
[1] = target: baculovirus-expressed JAK2 kinase (Homo sapiens, UniProt O60674); assay: biochemical; settings: 0.2 μM ATP; read-out: JAK2 Potency
Experimental: Compounds were tested for their ability to inhibit the kinase activity of baculovirus-expressed JAK2 kinase using the time-resolved fluorescence (TRF) detection system. […] The plates were coated with 100 μL/well of 10 μg/mL Neutravidin (Pierce #31000, Rockford, Ill.) in TBS at 37° C. for 2 h, followed by 100 μL/well of 1 μg/mL 15-mer peptide substrate (biotinyl-amino-hexanoyl-[…]-amide, Infinity Biotech Research and Resource, Aston, Pa.) at 37° C. for 1 h. […] Enzyme (15 ng/mL JAK2) was added and the reaction was allowed to proceed at room temperature for 20 min. […] Inhibition data were analyzed using ActivityBase (IDBS, Guilford, UK). IC50 values were calculated by plotting percent inhibition versus log10 of the concentration of compound and fitting to the nonlinear regression sigmoidal dose-response (variable slope) equation in XLFit (IDBS, Guilford, UK).

[2] = target: baculovirus-expressed ALK (Homo sapiens, UniProt Q9UM73); assay: ALK kinase inhibition, TRF/ELISA; type: biochemical; settings: read-out: ALK Potency
baculovirus-expressed ALK, sequence (Q9UM73 19-1620): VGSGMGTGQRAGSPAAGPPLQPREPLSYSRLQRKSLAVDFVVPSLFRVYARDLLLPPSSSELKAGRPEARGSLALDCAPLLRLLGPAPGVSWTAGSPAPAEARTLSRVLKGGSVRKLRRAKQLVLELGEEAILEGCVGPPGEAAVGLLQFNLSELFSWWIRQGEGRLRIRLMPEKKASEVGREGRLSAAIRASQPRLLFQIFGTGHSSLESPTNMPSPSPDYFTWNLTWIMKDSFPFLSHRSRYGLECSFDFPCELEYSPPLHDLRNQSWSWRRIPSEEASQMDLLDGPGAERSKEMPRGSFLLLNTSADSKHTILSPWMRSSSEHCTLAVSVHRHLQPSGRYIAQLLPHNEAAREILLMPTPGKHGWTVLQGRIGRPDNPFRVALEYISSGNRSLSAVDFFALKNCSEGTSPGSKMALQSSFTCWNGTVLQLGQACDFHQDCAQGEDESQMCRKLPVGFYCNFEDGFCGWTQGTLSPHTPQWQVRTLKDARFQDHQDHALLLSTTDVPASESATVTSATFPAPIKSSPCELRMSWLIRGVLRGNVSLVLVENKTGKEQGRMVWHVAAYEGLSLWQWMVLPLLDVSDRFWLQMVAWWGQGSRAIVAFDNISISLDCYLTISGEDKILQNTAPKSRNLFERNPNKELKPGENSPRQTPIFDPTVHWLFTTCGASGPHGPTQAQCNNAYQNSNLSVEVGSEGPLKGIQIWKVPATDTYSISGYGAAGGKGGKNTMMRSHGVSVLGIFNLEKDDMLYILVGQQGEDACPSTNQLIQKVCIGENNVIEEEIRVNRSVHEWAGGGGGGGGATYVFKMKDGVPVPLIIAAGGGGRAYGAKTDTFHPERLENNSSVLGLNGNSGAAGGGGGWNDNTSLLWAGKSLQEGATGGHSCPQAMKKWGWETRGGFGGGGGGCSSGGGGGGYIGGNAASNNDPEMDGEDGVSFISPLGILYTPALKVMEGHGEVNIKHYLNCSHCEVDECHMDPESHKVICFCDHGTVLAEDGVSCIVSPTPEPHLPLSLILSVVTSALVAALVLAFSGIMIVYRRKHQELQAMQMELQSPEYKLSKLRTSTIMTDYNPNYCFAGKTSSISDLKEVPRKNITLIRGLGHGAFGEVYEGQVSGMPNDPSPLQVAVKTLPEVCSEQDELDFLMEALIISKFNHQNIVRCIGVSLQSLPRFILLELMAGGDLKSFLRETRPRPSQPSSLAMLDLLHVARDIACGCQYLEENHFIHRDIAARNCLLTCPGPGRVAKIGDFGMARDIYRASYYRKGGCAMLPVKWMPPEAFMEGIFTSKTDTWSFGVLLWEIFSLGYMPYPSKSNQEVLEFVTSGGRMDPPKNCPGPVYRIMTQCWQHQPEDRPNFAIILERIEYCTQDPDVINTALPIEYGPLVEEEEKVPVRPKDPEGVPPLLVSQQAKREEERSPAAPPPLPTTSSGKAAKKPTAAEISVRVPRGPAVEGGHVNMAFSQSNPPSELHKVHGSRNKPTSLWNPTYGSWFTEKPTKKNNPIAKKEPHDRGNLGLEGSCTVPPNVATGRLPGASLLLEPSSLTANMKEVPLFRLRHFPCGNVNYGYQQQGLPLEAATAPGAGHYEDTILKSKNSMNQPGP
Experimental: Briefly, each 96-well plate was coated with 100 μL/well of 10 μg/mL substrate (GST-PLC-γ) in Tris-buffered saline (TBS). […] The reaction was initiated by adding enzyme (30 ng/mL ALK) and was allowed to proceed at 37° C. for 15 minutes. Detection of the phosphorylated product was performed by adding 100 μL/well of Eu-N1 labeled PT66 antibody (Perkin Elmer #AD0041). […] Data analysis was performed using ActivityBase (IDBS, Guilford, UK). IC50 values were calculated by plotting percent inhibition versus log10 of the concentration of compound and fitting to the nonlinear regression sigmoidal dose-response (variable slope) equation in XLFit (IDBS, Guilford, UK).

baculovirus-expressed JAK2 kinase, sequence (O60674 whole entry): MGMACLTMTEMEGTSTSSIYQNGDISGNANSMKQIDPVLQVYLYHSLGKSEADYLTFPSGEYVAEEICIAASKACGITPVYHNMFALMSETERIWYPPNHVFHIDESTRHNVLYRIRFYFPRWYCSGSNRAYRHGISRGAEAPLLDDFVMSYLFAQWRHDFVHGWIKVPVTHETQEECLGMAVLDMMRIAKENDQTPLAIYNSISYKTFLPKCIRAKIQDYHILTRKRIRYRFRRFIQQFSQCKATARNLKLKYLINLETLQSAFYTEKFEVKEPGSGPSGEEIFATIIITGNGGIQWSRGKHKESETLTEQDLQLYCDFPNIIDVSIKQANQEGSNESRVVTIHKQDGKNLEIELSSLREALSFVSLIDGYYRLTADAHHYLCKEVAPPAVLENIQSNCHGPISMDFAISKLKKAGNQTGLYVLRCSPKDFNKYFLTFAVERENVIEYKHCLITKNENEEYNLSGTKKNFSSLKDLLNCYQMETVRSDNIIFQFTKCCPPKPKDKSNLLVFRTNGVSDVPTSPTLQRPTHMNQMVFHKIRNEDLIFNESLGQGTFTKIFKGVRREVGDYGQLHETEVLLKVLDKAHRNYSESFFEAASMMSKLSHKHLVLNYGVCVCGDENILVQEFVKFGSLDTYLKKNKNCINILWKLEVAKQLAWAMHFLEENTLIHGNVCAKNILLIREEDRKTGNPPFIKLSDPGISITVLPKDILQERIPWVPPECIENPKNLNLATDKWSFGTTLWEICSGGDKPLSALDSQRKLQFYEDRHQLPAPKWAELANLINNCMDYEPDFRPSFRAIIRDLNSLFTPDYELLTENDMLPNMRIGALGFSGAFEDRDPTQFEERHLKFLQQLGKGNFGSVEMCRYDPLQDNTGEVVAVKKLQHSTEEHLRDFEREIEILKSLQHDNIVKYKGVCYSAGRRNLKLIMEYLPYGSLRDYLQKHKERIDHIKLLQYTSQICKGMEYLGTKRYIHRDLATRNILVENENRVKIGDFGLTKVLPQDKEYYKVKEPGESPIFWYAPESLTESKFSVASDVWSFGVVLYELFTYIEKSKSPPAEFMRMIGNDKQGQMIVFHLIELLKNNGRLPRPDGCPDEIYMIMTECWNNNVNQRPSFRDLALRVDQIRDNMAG

SMILES	IC50 [1]	IC50 [2]	IC50 ([2]; 1 μM ATP (Km level))
NC(=O)[C@@H]1[C@H](Nc2c(Cl)cnc3[nH]c(-c4ccc(C(=O)N5CCNC(C(=O)O)C5)cc4)nc23)[C@H]2C=C[C@@H]1C2 (stereo partly drawn) [Compound CCXXVI, 4-(4-(7-((1R,2R,3S,4S)-3-carbamoylbicyclo[2.2.1]hept-5-en-2-ylamino)-6-chloro-3H-imidazo[4,5-b]211pyridine-2-yl)benzoyl)piperazine-2-carboxylic acid]	< 100 nM	< 100 nM	–
COc1cc(N2CCC(N3CCN(C)CC3)CC2)ccc1-c1nc2c(N[C@@H]3CCCC[C@H]3NS(C)(=O)=O)c(Cl)cnc2[nH]1 [CCLIII]	1000 to 10000 nM	< 100 nM	–
O=C(NC1CC1)[C@@H]1[C@H](Nc2c(Cl)cnc3[nH]c(-c4sc(N5CC[C@@H](O)C5)nc4Cl)nc23)[C@H]2C=C[C@@H]1C2 [Compound CLXXIII, (1S,2S,3R,4R)-3-[6-Chloro-2-[4-chloro-2-((R)-3-hydroxy-pyrrolidin-1-yl)-thiazol-5-yl]-3H-imidazo[4,5-b]pyridin-7-ylamino]-bicyclo[2.2.1]hept-5-ene-2-carboxylic acid cyclopropylamide]	100 to 1000 nM	< 100 nM	–
CC(C)(C)OC(=O)N1CCC(c2nc3c(N[C@H]4[C@@H](C(N)=O)[C@@H]5C=C[C@H]4C5)c(Cl)cnc3[nH]2)CC1 [Compound CCXV, tert-butyl 4-(7-((1R,2R,3S,4S)-3-carbamoylbicyclo[2.2.1]hept-5-en-2-ylamino)-6-chloro-3H-imidazo[4,5-b]pyridin-2-yl)piperidine-1-carboxylate]	1000 to 10000 nM	1000 to 10000 nM	–
CN1CCC(Oc2cccc(-c3nc4c(N[C@H]5[C@@H](C(N)=O)[C@@H]6C=C[C@H]5C6)c(Cl)cnc4[nH]3)c2)CC1 [Compound CCXLVIII, (1S,2S,3R,4R)-3-(6-chloro-2-(3-(1-methylpiperidin-4-yloxy)phenyl)-3H-imidazo[4,5-b]pyridin-7-ylamino)bicyclo[2.2.1]hept-5-ene-2-carboxamide]	< 100 nM	< 100 nM	–
CC12CCC(Nc3c(Cl)cnc4[nH]c(-c5ccc(N6CCOCC6)cc5)nc34)(CC1O)C2(C)C (stereo not drawn) [Compound CCI, 4-(6-chloro-2-(4-morpholinophenyl)-3H-imidazo[4,5-b]pyridin-7-ylamino)-1,7,7-trimethylbicyclo[2.2.1]heptan-2-ol]	< 100 nM	> 10000 nM	–
NC(=O)[C@@H]1[C@H](Nc2c(Cl)cnc3[nH]c(-c4ccc(N5CCOCC5)cc4Cl)nc23)[C@H]2C=C[C@@H]1C2 [Compound CXX, (1S,2S,3R,4R)-3-[6-Chloro-2-(2-chloro-4-morpholin-4-yl-phenyl)-3H-imidazo[4,5-b]pyridin-7-ylamino]-bicyclo[2.2.1]hept-5-ene-2-carboxylic acid amide]	< 100 nM	< 100 nM	–
NC(=O)[C@@H]1[C@H](Nc2c(Br)cnc3[nH]c(-c4ccccc4F)nc23)[C@H]2C=C[C@@H]1C2 [Compound CXXXI, (1S,2S,3R,4R)-3-[6-Bromo-2-(2-fluoro-phenyl)-3H-imidazo[4,5-b]pyridin-7-ylamino]-bicyclo[2.2.1]hept-5-ene-2-carboxylic acid amide]	< 100 nM	< 100 nM	–
CN(C)c1nc(Cl)c(-c2nc3c(N[C@H]4[C@@H](C(N)=O)[C@@H]5C=C[C@H]4C5)c(Br)cnc3[nH]2)s1 [Compound CLV, (1S,2S,3R,4R)-3-[6-Bromo-2-(4-chloro-2-dimethylamino-thiazol-5-yl)-3H-imidazo[4,5-b]pyridin-7-ylamino]-bicyclo[2.2.1]hept-5-ene-2-carboxylic acid amide]	< 100 nM	< 100 nM	–

More lines, now with the values ahead:

IC50 [1]	IC50 [2]	IC50 ([2]; 1 μM ATP (Km level))	SMILES
< 100 nM	< 100 nM	–	COc1cc(C(=O)N2CCOCC2)ccc1-c1nc2c(N[C@H]3[C@@H](C(N)=O)[C@@H]4C=C[C@H]3C4)c(Cl)cnc2[nH]1 [Compound LXIII, (1S,2S,3R,4R)-3-{6-Chloro-2-[2-methoxy-4-(morpholine-4-carbonyl)-phenyl]-3H-imidazo[4,5-b]pyridine-7-ylamino}-bicyclo[2.2.1]hept-5-ene-2-carboxylic acid amide]
< 100 nM	< 100 nM	–	CN1CCN(Cc2ccc(-c3nc4c(N[C@H]5[C@@H](C(N)=O)[C@@H]6C=C[C@H]5C6)c(Cl)cnc4[nH]3)cc2)CC1 [Compound XX, (1S,2S,3R,4R)-3-{6-Chloro-2-[4-(4-methyl-piperazin-1-ylmethyl)-phenyl]-3H-imidazo[4,5-b]pyridin-7-ylamino}-bicyclo[2.2.1]hept-5-ene-2-carboxylic acid amide; compound with trifluoro-acetic acid bis trifluoroacetic acid salt]
1000 to 10000 nM	< 100 nM	–	COc1cc(CN2CCOCC2)ccc1-c1nc2c(N[C@@H]3CCCC[C@H]3NS(C)(=O)=O)c(Cl)cnc2[nH]1 [Compound LXX, N-{(1R,2R)-2-[6-Chloro-2-(2-methoxy-4-morpholin-4-ylmethyl-phenyl)-3H-imidazo[4,5-b]pyridine-7-ylamino]-cyclohexyl}-methanesulfonamide]
100 to 1000 nM	< 100 nM	–	COc1cc(CN2CCNCC2)ccc1-c1nc2c(N[C@H]3[C@@H](C(N)=O)[C@@H]4C=C[C@H]3C4)c(Cl)cnc2[nH]1 [Compound XLII, (1S,2S,3R,4R)-3-[6-Chloro-2-(2-methoxy-4-piperazin-1-ylmethyl-phenyl)-3H-imidazo[4,5-b]pyridine-7-ylamino]-bicyclo[2.2.1]hept-5-ene-2-carboxylic acid amide]
> 10000 nM	< 100 nM	–	COc1cc(N2CCOCC2)ccc1-c1nc2c(N[C@@H]3CCCC[C@H]3NS(C)(=O)=O)c(Cl)cnc2[nH]1 [Compound LXXII, N-{(1R,2R)-2-[6-Chloro-2-(2-methoxy-4-morpholin-4-yl-phenyl)-3H-imidazo[4,5-b]pyridine-7-ylamino]-cyclohexyl}-methanesulfonamide]
< 100 nM	< 100 nM	–	COc1cc(CN2CCOCC2)ccc1Nc1nc2c(N[C@H]3[C@@H](C(N)=O)[C@@H]4C=C[C@H]3C4)c(Cl)cnc2[nH]1 [Compound LXIX, (1S,2S,3R,4R)-3-[6-Chloro-2-(2-methoxy-4-morpholin-4-ylmethyl-phenylamino)-3H-imidazo[4,5-b]pyridine-7-ylamino]-bicyclo[2.2.1]hept-5-ene-2-carboxylic acid amide]
< 100 nM	100 to 1000 nM	–	CC(C)(C)OC(=O)N1CCC(n2cc(-c3nc4c(N[C@H]5[C@@H](C(N)=O)[C@@H]6C=C[C@H]5C6)c(Cl)cnc4[nH]3)cn2)CC1 [Compound L, 4-{4-[7-((1R,2R,3S,4S)-3-Carbamoyl-bicyclo[2.2.1]hept-5-en-2-ylamino)-6-chloro-3H-imidazo[4,5-b]pyridine-2-yl]-pyrazol-1-yl}-piperidine-1-carboxylic acid tert-butyl ester]
< 100 nM	< 100 nM	–	NC(=O)[C@@H]1[C@H](Nc2c(Cl)cnc3[nH]c(-c4ccc(N5CCNCC5)cc4)nc23)[C@H]2C=C[C@@H]1C2 [Compound XV, (1S,2S,3R,4R)-3-[6-Chloro-2-(4-piperazin-1-yl-phenyl)-3H-imidazo[4,5-b]pyridin-7-ylamino]-bicyclo[2.2.1]hept-5-ene-2-carboxylic acid amide trifluoroacetic acid salt]
< 100 nM	< 100 nM	–	Cc1nc(C2CCN(CC(N)=O)CC2)sc1-c1nc2c(N[C@H]3[C@@H](C(N)=O)[C@@H]4C=C[C@H]3C4)c(Cl)cnc2[nH]1 [Compound LXV, (1S,2S,3R,4R)-3-{2-[2-(1-Carbamoylmethyl-piperidin-4-yl)-4-methyljj-thiazol-5-yl]-6-chloro-3H-imidazo[4,5-b]pyridine-7-ylamino}-bicyclo[2.2.1]hept-5-ene-2-carboxylic acid amide]
< 100 nM	< 100 nM	–	COc1cc(C2=CCN(C[C@H](C)O)CC2)ccc1-c1nc2c(N[C@H]3[C@@H](C(N)=O)[C@@H]4C=C[C@H]3C4)c(Cl)cnc2[nH]1 [Compound XLVIII, (1S,2S,3R,4R)-3-(6-Chloro-2-[4-[1((S)-2-hydroxypropyl)-1,2,3,6-tetrahydro-pyridin-4-yl]-2-methoxyphenyl]-3H-imidazo[4,5-b]pyridine-7-ylamino)-bicyclo[2.2.1]hept-5-ene-2-carboxylic acid amide]
< 100 nM	< 100 nM	–	CN(C)c1ccc(-c2nc3c(N[C@H]4[C@@H](C(N)=O)[C@@H]5C=C[C@H]4C5)c(Cl)cnc3[nH]2)cc1 [Compound I, (1S,2S,3R,4R)-3-[6-Chloro-2-(4-dimethylamino-phenyl)-3H-imidazo[4,5-b]pyridin-7-ylamino]-bicyclo[2.2.1]hept-5-ene-2-carboxylic acid amide]
> 10000 nM	–	> 10000 nM	NC(=O)[C@@H]1[C@H](Nc2c(Cl)cnc3[nH]c(C4CCCNC4)nc23)[C@H]2C=C[C@@H]1C2 (single isomer, unassigned) [XIV]
